Test results: patent US20090069363A1, “Therapeutic Agent for Constipation” (SHIONOGI & CO. LTD. A LEGAL ENTITY OF JAPAN, priority 2004, published 2009)

Assays:
[1] = test system: morphine-induced gastrointestinal transit inhibition; test: Influence on morphine-induced inhibitory action against transport competence of gastrointestinal tract (carbon powder transfer rate); type: in vivo; conditions: mouse, 15 min before morphine 3 mg/kg s.c.
Experimental: After weighing each test compound, 0.5% methylcellulose (methylcellulose: Wako Pure Chemicals, water for injection: Otsuka Pharmaceutical Factory) was added, and the obtained mixture was well stirred to prepare solutions containing the test compound at final concentrations of 3 mg/mL, 1 mg/mL and 0.3 mg/mL, respectively.
After weighing each test compound, 5% xylitol (Kylit injection (registered trademark), Otsuka Pharmaceutical Factory) was added and the mixture was well stirred to prepare solutions containing the test compound at a final concentration of 1 mg/mL. The solutions having concentrations of 0.3 mg/mL and 0.1 mg/mL, respectively, were prepared by diluting the solution having the concentration of 1 mg/mL.
Preparation Method: After weighing, physiological saline was added and the mixture was well stirred to prepare a solution having a concentration of 0.3 mg/mL.
• Crj:CD-1(ICR) mouse (SPF, male, 5-week old, body weight: 25.6-32.0 g (oral administration), 26.3-33.0 g (subcutaneous administration), Charles River Laboratories Japan)
• Control Group: 8 animals; Solvent-administered Group: 8 animals; Compound 1: 3, 10 and 30 mg/kg Groups: each 8 animals; Compound 2: 3, 10 and 30. mg/kg Groups: each 8 animals; Compound 3: 3, 10 and 30 mg/kg Groups: each 8 animals
• Control Group: 8 animals, Solvent-administered Group: 8 animals; Compound 1: 3, 10 and 30 mg/kg Groups: each 8 animals; Compound 2: 3, 10 and 30 mg/kg Groups: each 8 animals; Compound 3: 3, 10 and 30 mg/kg Groups: each 8 animals
• Administration volume: 10 mL/kg • Administration Method: Oral administration was carried out using a disposable syringe and an oral feeding tube.
Subcutaneous administration was carried out using a disposable syringe and a disposable injection needle. • Administration Frequency: single
Mice fasted overnight from the evening on one day before the test were used. Each test compound was administered, and 15 minutes later, morphine (3 mg/kg) was subcutaneously administered. 30 minutes after the administration of morphine, carbon powder (a suspension containing 5% of carbon powder suspended in 10% gum Arabic) was orally administered to each mouse in an amount of 0.1 mL, and the transfer rate (the distance which the carbon powder reached/the distance between the pylorus to cecum opening×100) was measured at 30 minutes after the administration of carbon powder. To the solvent-administered group, a solvent (methylcellulose or xylitol) was administered in place of the test substance solution. To the control group, none of the test substance, morphine and the solvent was administered and the transfer rate of the carbon powder was measured.

[2] = test system: morphine-induced small intestine transit inhibition; test: Influence on morphine-induced small intestine transit inhibition (Evans blue test meal); type: in vivo; conditions: rat
Experimental: Using aqueous 0.5 w/v % Evans blue solution, 2.5 w/v % carboxymethylcellulose salt solution was prepared and used as the test meal.
Male Wistar rats (Crj. Wistar, Charles River Laboratories Japan, 6 to 7-week old) were used. The rats were fasted from not less than 20 hours before the beginning of the test, and water was given ad libitum.
The compound (I-1) synthesized in Example 1 was dissolved in a solvent (DMAA/Solutol/5% meglumine=15/15/70) • DMAA: N,N-dimethylacetamide (Kanto Chemical) • Solutol: Solutol (registered trademark) HS15 (BASF) • Meglumine: D(−)-N-methylglucamin (Merck)
Morphine hydrochloric acid salt (Dainippon Pharma) was dissolved in normal saline.
All of the test substance, solvent and morphine were administered in avolume of 2 mL/kg.
Each test substance in an amount of 0.03, 0.1, 0.3, 1 or 3 mg/kg (Test Substance—administered Groups) or the above-described solvent (Solvent-administered Group) was subcutaneously administered, and 75 minutes later, 3 mg/kg of morphine was subcutaneously administered to all groups. […]
The test meal in an amount of 2 mL/rat was orally administered at 30 minutes after the administration of morphine. […] The distance between the cardia and the ileocecum (full length of small intestine), and the distance up to the tip of the pigment (moving distance of the pigment) were measured. […]

[3] = test substance 1 mg/kg subcutaneous
[4] = test substance 3 mg/kg subcutaneous
[5] = test substance 10 mg/kg subcutaneous

**Q.** With `Cn1c2c(c3ccccc31)C[C@@]1(O)[C@H]3Cc4ccc(O)c5c4[C@@]1(CCN3CC1CC1)[C@H]2O5` [Compound 1] as the compound, how does the “Transfer Rate of Carbon Powder (%)” value [1, 3] read?
**A.** Its value is 41 ± 2 %.

**Q.** What about the “Transfer Rate of Carbon Powder (%)” value ([1]; test substance 3 mg/kg oral) of the same compound?
**A.** The value was 38 ± 2 %.

**Q.** And the “Transfer Rate of Carbon Powder (%)” value [1, 4]?
**A.** The value was 43 ± 3 %.

**Q.** What about the “Transfer Rate of Carbon Powder (%)” value ([1]; test substance 10 mg/kg oral) of the same compound?
**A.** Its value is 35 ± 2 %.

**Q.** And the “Transfer Rate of Carbon Powder (%)” value [1, 5]?
**A.** Its value is 46 ± 3 %.

**Q.** And the “Transfer Rate of Carbon Powder (%)” value ([1]; test substance 30 mg/kg oral)?
**A.** The value was 40 ± 2 %.

**Q.** Which results are given for `CCOC(=O)c1ccc2c3c([nH]c2c1)[C@@H]1Oc2c(O)ccc4c2[C@@]12CCN(CC1CC1)[C@H](C4)[C@]2(O)C3` [Compound 2]?
**A.** Transfer Rate of Carbon Powder (%) [1, 3]: 35 ± 3%; Transfer Rate of Carbon Powder (%) ([1]; test substance 3 mg/kg oral): 43 ± 2 %; Transfer Rate of Carbon Powder (%) [1, 4]: 53 ± 3 %; Transfer Rate of Carbon Powder (%) ([1]; test substance 10 mg/kg oral): 38 ± 2 %; Transfer Rate of Carbon Powder (%) [1, 5]: 55 ± 2 %; Transfer Rate of Carbon Powder (%) ([1]; test substance 30 mg/kg oral): 52 ± 3 %

**Q.** `Cc1ccc(/C=C2\C[C@@]3(O)[C@H]4Cc5ccc(O)c6c5[C@@]3(CCN4CC3CC3)[C@@H](O6)C2=O)cc1` [Compound 3] was tested. Which “Transfer Rate of Carbon Powder (%)” value [1, 3] did it give?
**A.** Its value is 32 ± 2%.

**Q.** What about the “Transfer Rate of Carbon Powder (%)” value [1, 4] of the same compound?
**A.** The value was 43 ± 1 %.

**Q.** And the “Transfer Rate of Carbon Powder (%)” value [1, 5]?
**A.** The value was 53 ± 3 %.

**Q.** `O=C(O)c1ccc2c3c([nH]c2c1)[C@@H]1Oc2c(O)ccc4c2[C@@]12CCN(CC1CC1)[C@H](C4)[C@]2(O)C3` [Compound I-1, 17-cyclopropylmethyl-6,7-didehydro-4,5α-epoxy-3,14β-dihydroxy-6′-carboxy-6,7-2′,3′-indolomorphinan] was tested. Which “ED50 against morphine-induced small intestine transit inhibition” value ([2]; test substance s.c. 75 min before morphine 3 mg/kg s.c., calculated from % MPE) did it give?
**A.** Its value is 0.29 mg/kg.

**Q.** What about the “antagonistic action against morphine-induced small intestine transit inhibition” value ([2]; test substance s.c., morphine 3 mg/kg s.c.) of the same compound?
**A.** Its value is “exhibited antagonistic action”.
